Data as given in US9387221B2, “SDF-1 binding nucleic acids and the use thereof in cancer treatment” (NOXXON Pharma AG, priority 2010, dated 2016).

Experiments:
[1] = target: CXCR4 (Homo sapiens, UniProt P61073); details: MM cells in vivo, CXCR4 blockade; cited from earlier work
[2] = target: CXCR4 (Mus musculus, UniProt P70658); details: GBM mouse xenograft, irradiation; cited from earlier work
[3] = system: stromal MS-5 cells; test: Viability of stromal MS-5 cells in the coculture; assay type: cell-based, murine; details: data not shown
Method: The murine stromal cell line MS-5 (ACC 441) was purchased from the DSMZ, the Multiple Myeloma cell line RPMI8226 (CCL-155) was purchased from the ATCC. The Multiple Myeloma cell line RPMI8226 was maintained in RPMI medium 1640 GlutaMAX (Invitrogen) supplemented with 10% FBS (Biochrom) and penicillin-streptomycin, the MS-5 cells were cultured in MEM alpha GlutaMAX (Invitrogen) with 10% FBS and penicillin-streptomycin. For chemosensitization coculture experiments stromal MS-5 cells were seeded the day before onto 24-well plates (the inner eight wells) at a concentration of 8×10^4/mL/well in MEM alpha GlutaMAX medium (+10% FBS) and incubated at 37° C. in 5% CO2. The confluent stromal cell layer was washed and 0.5 mL RPMI medium 1640 (+1% FBS) was added to the wells. SDF-1 binding […] NOX-A12 or revNOX-A12 was subsequently added to the wells to a final concentration of 100 nM and incubated for four hours. 3.5×10^5 RPMI8226 cells in RPMI medium 1640 (+1% FBS) were added to the stromal cell layer. Four hours later, 1 μ[…] (Sigma Aldrich) was added to the cells when indicated. After 40 hours of incubation the cells were collected in 15 mL tubes, first the supernatant was harvested and then the attached cells were trypsinized including MS-5 cells. […] Cell viability and cell number were determined by Flow Cytometry using the Guava EasyCyte 6HT/2L (Millipore).

[4] = system: RPMI-8226 MM cells; test: Chemosensitization coculture of RPMI-8226 MM cells with stromal MS-5 cells; assay type: cell-based; details: 100 nM NOX-A12, 1 μM F-ara-A, 40 hours
Method: In order to mimic the in vivo interaction of the BM microenvironment with leukemia cells, an in vitro coculture system with murine BM stromal MS-5 cells and the multiple myeloma (abbr. MM) cell line RPMI 8226 was established. Aim of the experiment was to show whether SDF-1 binding […] NOX-A12 sensitizes MM cells in coculture with stromal cells to effects of chemotherapeutic agents. Stromal MS-5 cells secreting SDF 1 were incubated with SDF-1 binding […] NOX-A12 or the non-functional revNOX-A12. The MM cell line RPMI-8226 was added to the confluent stromal cell layer. The cells were then incubated with the chemotherapeutic agent F ara A (Fludarabine) for 40 hours. Cell Viability viability was measured. The murine stromal cell line MS-5 (ACC 441) was purchased from the DSMZ, the Multiple Myeloma cell line RPMI8226 (CCL-155) was purchased from the ATCC. The Multiple Myeloma cell line RPMI8226 was maintained in RPMI medium 1640 GlutaMAX (Invitrogen) supplemented with 10% FBS (Biochrom) and penicillin-streptomycin, the MS-5 cells were cultured in MEM alpha GlutaMAX (Invitrogen) with 10% FBS and penicillin-streptomycin. […] Cell viability and cell number were determined by Flow Cytometry using the Guava EasyCyte 6HT/2L (Millipore).

Chain of CXCR4 (Mus musculus, UniProt P70658) (P70658 whole entry): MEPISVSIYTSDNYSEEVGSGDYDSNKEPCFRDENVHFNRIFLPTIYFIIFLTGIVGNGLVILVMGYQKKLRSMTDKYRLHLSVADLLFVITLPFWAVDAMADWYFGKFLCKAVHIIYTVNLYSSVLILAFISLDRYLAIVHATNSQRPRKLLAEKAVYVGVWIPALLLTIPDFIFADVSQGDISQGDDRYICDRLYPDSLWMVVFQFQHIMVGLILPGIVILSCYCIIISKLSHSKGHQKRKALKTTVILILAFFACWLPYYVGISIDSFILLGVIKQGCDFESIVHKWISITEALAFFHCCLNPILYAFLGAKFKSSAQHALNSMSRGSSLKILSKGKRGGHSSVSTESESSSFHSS
Chain of CXCR4 (Homo sapiens, UniProt P61073) (P61073 whole entry, species assumed): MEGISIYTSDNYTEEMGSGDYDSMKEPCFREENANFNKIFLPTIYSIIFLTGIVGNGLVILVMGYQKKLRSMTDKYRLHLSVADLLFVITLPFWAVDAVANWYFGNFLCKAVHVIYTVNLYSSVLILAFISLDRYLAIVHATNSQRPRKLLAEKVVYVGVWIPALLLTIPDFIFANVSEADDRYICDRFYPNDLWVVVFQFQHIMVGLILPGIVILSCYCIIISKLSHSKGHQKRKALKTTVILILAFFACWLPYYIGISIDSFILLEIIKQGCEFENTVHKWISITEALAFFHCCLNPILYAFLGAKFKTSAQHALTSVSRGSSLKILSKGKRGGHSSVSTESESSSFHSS

Structure (SMILES) | tumor reduction induced by bortezomib [1] | influx of BMDCs in the irradiated tumor [2] | viability of stromal MS-5 cells [3] | cell viability of RPMI-8226 cells cocultured with stromal MS-5 cells [4]
c1cc(CN2CCCNCCNCCCNCC2)ccc1CN1CCCNCCNCCCNCC1 [AMD3100] | enhanced tumor reduction induced by bortezomib | prevented the influx of BMDCs in the irradiated tumor | – | –
Nc1nc(F)nc2c1ncn2[C@@H]1O[C@H](CO)[C@@H](O)[C@@H]1O [F-ara-A, Fludarabine, reference compound] | – | – | neither affected | no significant effect
